Measured values as given in US12116461B2, “Host-guest interactions for pa superstructure formation” (Northwestern University, priority 2020, dated 2024).
Where a SMILES comes first, the peptide text is derived from it. The star is where a group is joined. Palmitoyl = CCCCCCCCCCCCCCCC(=O)*

What was measured:
[1] = Rheological measurement of storage modulus; assay type: physicochemical; settings: no free adamantane added
Experimental: (§1) PA materials were prepared and annealed using methods described in section 2.1.1. An Anton Paar MCR302 Rheometer with a 25 mm cone plate was used for all rheological studies. 150 μL of PA liquid was placed on the sample stage. For experiments using Free Adamantane, 30 μL of either 1 mM or 2 mM adamantane solution (prepared as described in section 2.1.3) was added in droplets to the top plunger. The plunger was then lowered to the measuring position and a humidity collar was added during the “sample trim” phase to prevent sample evaporation during the measurement. The sample was equilibrated for 30 minutes with a constant angular frequency of 10 rad/s and 0.1% strain. The storage and loss modulus were recorded. For thixotropy studies, the sample was applied to the stage as previously mentioned. The first and third interval consisted of 10, 6 second points with an oscillating shear strain of 0.1% and angular frequency of 10 rad/s. The storage and loss modulus were plotted against time. The second interval consisted of 10, 1 second points with a constant shear rate of 100 s^−1. The viscosity was plotted against time. For recovery experiments, G′ and G″ were measured during alternating intervals of low and high strain. The low strain interval was 200 seconds at 0.5% strain and the high strain interval was 50 seconds at 50% strain.

[2] = Thixotropy interval study (before/after high shear); assay type: physicochemical
Experimental: as §1

[3] = 1H-NMR titration, association constant of β-cyclodextrin with 1-adamantaneacetic acid; settings: 1:1 host-guest binding model; 125 mM NaCl, 3 mM KCl buffer pH 7.2-7.4, 25° C.
Experimental: The association constant for the binding between 1-adamantaneacetic acid and β-cyclodextrin was measured in 125 mM NaCl and 3 mM KCl buffer at pH 7.2-7.4. In a typical titration experiment, small amounts of a “guest solution” (100 mM 1-adamantaneacetic acid and 3.5 mM β-cyclodextrin in deuterated buffer) were added to approximately 0.8 ml of “host solution” (3.5 mM β-cyclodextrin in deuterated buffer) until at least 5 equiv of “guest” molecules were added. 1H-NMR spectra were obtained at 25° C. upon each addition of the “guest” solution and a binding isotherm was constructed by monitoring the protons on 1-adamantaneacetic acid.
The binding isotherms were fit to a standard 1:1 host-guest binding model (Eq. 1-3) where [HG] is the concentration of host-guest complex, [H]0 is the total concentration of “host” molecules, [G]0 is the total concentration of “guest” molecules, do is the proton peak position at [HG]/[H]0=0, δ is the proton peak position measured at different values of [HG]/[H]0, and δ∞ is a fitting parameter. All spectra were obtained with a X500 Bruker Avance III HD system equipped with a TXO Prodigy probe and analyzed with the MestreNova (Mestrelab Research) software.

| SMILES | storage modulus (G′) [1] | G′ after high shear ([2]; after high shear) | G′ before high shear ([2]; before high shear) | association constant (Ka) [3] |
| --- | --- | --- | --- | --- |
| CCCCCCCCCCCCCCCC(=O)N[C@H](C(=O)N[C@H](C(=O)N[C@@H](C)C(=O)N[C@@H](C)C(=O)N[C@@H](CCC(=O)O)C(=O)N[C@@H](CCC(=O)O)C(N)=O)C(C)C)C(C)C [E2 PA, C16V2A2E2] (Palmitoyl-VVAAEE-NH2) | 20±12 Pa | 26.8 Pa | 43.9 Pa | – |
| OC[C@H]1O[C@@H]2O[C@H]3[C@H](O)[C@@H](O)[C@@H](O[C@H]4[C@H](O)[C@@H](O)[C@@H](O[C@H]5[C@H](O)[C@@H](O)[C@@H](O[C@H]6[C@H](O)[C@@H](O)[C@@H](O[C@H]7[C@H](O)[C@@H](O)[C@@H](O[C@H]8[C@H](O)[C@@H](O)[C@@H](O[C@H]1[C@H](O)[C@H]2O)O[C@@H]8CO)O[C@@H]7CO)O[C@@H]6CO)O[C@@H]5CO)O[C@@H]4CO)O[C@@H]3CO [β-cyclodextrin] | – | – | – | 395 M⁻¹ |
